This is an account of results in patent publication US20260184691A1, “INHIBITORS AND DEGRADERS OF PIP4K PROTEIN” (Larkspur Biosciences, Inc., priority 2022, published 2026).

SMILES strings stand for the structures.

In this test the target is T1, endogenous PIP4K2C C-terminally tagged with HiBiT peptide in MOLT-4 cells (Homo sapiens, UniProt Q8TBX8).
T1 construct: to C-terminally tag endogenous PIP4K2C with HiBiT peptide; host or cells: MOLT-4 (CRISPR-Cas9 knock-in clone)
T1 sequence (Q8TBX8 1-421): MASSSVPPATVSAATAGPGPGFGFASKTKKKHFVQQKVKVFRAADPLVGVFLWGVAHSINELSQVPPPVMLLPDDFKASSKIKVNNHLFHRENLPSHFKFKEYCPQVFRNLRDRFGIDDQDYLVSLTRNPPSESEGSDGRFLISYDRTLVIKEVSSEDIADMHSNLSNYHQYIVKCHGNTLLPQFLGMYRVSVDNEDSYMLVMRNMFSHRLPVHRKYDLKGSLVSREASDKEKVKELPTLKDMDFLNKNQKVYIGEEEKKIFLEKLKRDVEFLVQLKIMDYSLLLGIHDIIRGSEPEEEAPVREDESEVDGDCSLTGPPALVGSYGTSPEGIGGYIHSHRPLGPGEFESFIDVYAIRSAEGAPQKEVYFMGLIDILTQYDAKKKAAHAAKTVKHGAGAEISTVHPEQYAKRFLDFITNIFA
Nature of the test: HiBiT PIP4K2C degradation assay in MOLT-4 cells. In kind it is cell-based. Particulars: 24 hours, 10-point dose response, top concentration 10 micromolar, read-out: HiBIT-degradation MOLT4 PIP4k2C 24 hours DC50. How it is done:
Following clonal selection, genotype was confirmed by Sanger sequencing. […] Nano-Glo® HiBiT Lytic Assay System was purchased from Promega (Madison, WI, Catalog number N3030). Cell culture flasks and 384-well microplates were purchased from Corning (Glendale, AZ).
To study PIP4K2C degradation, 384-well plates were plated with a 10-point dose response curve, 3-fold dilution, in duplicate with a top starting concentration of 10 micromolar. Subsequently 22,500 cells were added to each well and incubated at 37C in 5% CO2 for 24 hours. At the end of the incubation time, cells were treated with the Nano-Glo® HiBiT Lytic Detection System following the manufacturer's instructions. Luminescence was measured with a PHERAstar FSX plate reader (BMG Labtech, Cary, NC). The Levenberg-Marquardt algorithm was used to fit a Hill equation to dose-response data to calculate DC50 values (see Table 6).
On the technique in general: With HiBiT, luminescence reflects the tagged protein that the partner subunit can reach.
The DC50 is the concentration at which degradation of the target reaches its halfway point. For the compound `O=C(COc1ccc2c(c1)CN(C1CCC(=O)NC1=O)C2=O)NCCCCCCCCCC(=O)Nc1cncc(Nc2ncc(Cl)c(-c3cccc(-c4ccccc4)c3)n2)c1` (centres unmarked) [Compound 60, N-(5-((4-([1,1′-biphenyl]-3-yl)-5-chloropyrimidin-2-yl)amino)pyridin-3-yl)-10-(2-((2-(2,6-dioxopiperidin-3-yl)-1-oxoisoindolin-5-yl)oxy)acetamido)decanamide], the DC50 is under 500 nM. The value for `O=C1CCC(N2Cc3cc(OCCCCCCCCCC(=O)N4CCC5(CC4)CCN(c4cncc(Nc6ncc(Cl)c(-c7cccc(-c8ccccc8)c7)n6)c4)C5=O)ccc3C2=O)C(=O)N1` (centres unmarked) [Compound 61, 3-(5-((10-(2-(5-((4-([1,1′-biphenyl]-3-yl)-5-chloropyrimidin-2-yl)amino)pyridin-3-yl)-1-oxo-2,8-diazaspiro[4.5]decan-8-yl)-10-oxodecyl)oxy)-1-oxoisoindolin-2-yl)piperidine-2,6-dione] was under 500 nM. The value for `O=C1CCC(N2Cc3cc(OCCCCCCCCC(=O)N4CCC5(CC4)CCN(c4cncc(Nc6ncc(Cl)c(-c7cccc(-c8ccccc8)c7)n6)c4)C5=O)ccc3C2=O)C(=O)N1` (centres unmarked) [Compound 62, 3-(5-((9-(2-(5-((4-([1,1′-biphenyl]-3-yl)-5-chloropyrimidin-2-yl)amino)pyridin-3-yl)-1-oxo-2,8-diazaspiro[4.5]decan-8-yl)-9-oxononyl)oxy)-1-oxoisoindolin-2-yl)piperidine-2,6-dione] was under 500 nM. The same measure for `O=C1CCC(N2Cc3cc(OCCCCCCCC(=O)N4CCC5(CC4)CCN(c4cncc(Nc6ncc(Cl)c(-c7cccc(-c8ccccc8)c7)n6)c4)C5=O)ccc3C2=O)C(=O)N1` (centres unmarked) [Compound 63, 3-(5-((8-(2-(5-((4-([1,1′-biphenyl]-3-yl)-5-chloropyrimidin-2-yl)amino)pyridin-3-yl)-1-oxo-2,8-diazaspiro[4.5]decan-8-yl)-8-oxooctyl)oxy)-1-oxoisoindolin-2-yl)piperidine-2,6-dione]: under 500 nM; for `O=C1CCC(N2Cc3cc(OCCCCCCC(=O)N4CCC5(CC4)CCN(c4cncc(Nc6ncc(Cl)c(-c7cccc(-c8ccccc8)c7)n6)c4)C5=O)ccc3C2=O)C(=O)N1` (centres unmarked) [Compound 64, 3-(5-((7-(2-(5-((4-([1,1′-biphenyl]-3-yl)-5-chloropyrimidin-2-yl)amino)pyridin-3-yl)-1-oxo-2,8-diazaspiro[4.5]decan-8-yl)-7-oxoheptyl)oxy)-1-oxoisoindolin-2-yl)piperidine-2,6-dione]: under 500 nM. Take `O=C1CCC(N2C(=O)c3cccc(OCCCN4CCN(CCCCC(=O)Nc5cncc(Nc6ncc(Cl)c(-c7cccc(-c8ccccc8)c7)n6)c5)CC4)c3C2=O)C(=O)N1` (centres unmarked) [Compound 65, N-(5-((4-([1,1′-biphenyl]-3-yl)-5-chloropyrimidin-2-yl)amino)pyridin-3-yl)-5-(4-(3-((2-(2,6-dioxopiperidin-3-yl)-1,3-dioxoisoindolin-4-yl)oxy)propyl)piperazin-1-yl)pentanamide]: the DC50 was under 500 nM. As for `O=C(COc1cccc2c1CN(C1CCC(=O)NC1=O)C2=O)NCCCCCCCCCC(=O)Nc1cncc(Nc2ncc(Cl)c(-c3cccc(-c4ccccc4)c3)n2)c1` (centres unmarked) [Compound 66, N-(5-((4-([1,1′-biphenyl]-3-yl)-5-chloropyrimidin-2-yl)amino)pyridin-3-yl)-10-(2-((2-(2,6-dioxopiperidin-3-yl)-1-oxoisoindolin-4-yl)oxy)acetamido)decanamide], the DC50 was under 500 nM. The same measure for `O=C1CCC(N2C(=O)c3cccc(OCCCN4CCN(CCCCCCCC(=O)Nc5cncc(Nc6ncc(Cl)c(-c7cccc(-c8ccccc8)c7)n6)c5)CC4)c3C2=O)C(=O)N1` (centres unmarked) [Compound 67, N-(5-((4-([1,1′-biphenyl]-3-yl)-5-chloropyrimidin-2-yl)amino)pyridin-3-yl)-8-(4-(3-((2-(2,6-dioxopiperidin-3-yl)-1,3-dioxoisoindolin-4-yl)oxy)propyl)piperazin-1-yl)octanamide]: under 500 nM; for `O=C1CCC(N2C(=O)c3cccc(OCCCN4CCN(CCCCCC(=O)Nc5cncc(Nc6ncc(Cl)c(-c7cccc(-c8ccccc8)c7)n6)c5)CC4)c3C2=O)C(=O)N1` (centres unmarked) [Compound 68, N-(5-((4-([1,1′-biphenyl]-3-yl)-5-chloropyrimidin-2-yl)amino)pyridin-3-yl)-6-(4-(3-((2-(2,6-dioxopiperidin-3-yl)-1,3-dioxoisoindolin-4-yl)oxy)propyl)piperazin-1-yl)hexanamide]: under 500 nM; for `O=C1CCC(N2Cc3c(OCCCCCCCCCC(=O)N4CCC5(CC4)CCN(c4cncc(Nc6ncc(Cl)c(-c7cccc(-c8ccccc8)c7)n6)c4)C5=O)cccc3C2=O)C(=O)N1` (centres unmarked) [Compound 69, 3-(4-((10-(2-(5-((4-([1,1′-biphenyl]-3-yl)-5-chloropyrimidin-2-yl)amino)pyridin-3-yl)-1-oxo-2,8-diazaspiro[4.5]decan-8-yl)-10-oxodecyl)oxy)-1-oxoisoindolin-2-yl)piperidine-2,6-dione]: under 500 nM.

As for `O=C1CCC(N2Cc3c(OCCCCCCCC(=O)N4CCC5(CC4)CCN(c4cncc(Nc6ncc(Cl)c(-c7cccc(-c8ccccc8)c7)n6)c4)C5=O)cccc3C2=O)C(=O)N1` (centres unmarked) [Compound 70, 3-(4-((8-(2-(5-((4-([1,1′-biphenyl]-3-yl)-5-chloropyrimidin-2-yl)amino)pyridin-3-yl)-1-oxo-2,8-diazaspiro[4.5]decan-8-yl)-8-oxooctyl)oxy)-1-oxoisoindolin-2-yl)piperidine-2,6-dione], the DC50 is under 500 nM. The value for `O=C1CCC(N2Cc3c(OCCCCCCCCC(=O)N4CCC5(CC4)CCN(c4cncc(Nc6ncc(Cl)c(-c7cccc(-c8ccccc8)c7)n6)c4)C5=O)cccc3C2=O)C(=O)N1` (centres unmarked) [Compound 71, 3-(4-((9-(2-(5-((4-([1,1′-biphenyl]-3-yl)-5-chloropyrimidin-2-yl)amino)pyridin-3-yl)-1-oxo-2,8-diazaspiro[4.5]decan-8-yl)-9oxononyl)oxy)-1-oxoisoindolin-2-yl)piperidine-2,6-dione] was under 500 nM; that for `O=C1CCC(N2C(=O)c3ccc(OCCCCCCCCC(=O)N4CCC5(CC4)CCN(c4cncc(Nc6ncc(Cl)c(-c7cccc(-c8ccccc8)c7)n6)c4)C5=O)cc3C2=O)C(=O)N1` (centres unmarked) [Compound 72, 5-((9-(2-(5-((4-([1,1′-biphenyl]-3-yl)-5-chloropyrimidin-2-yl)amino)pyridin-3-yl)-1-oxo-2,8-diazaspiro[4.5]decan-8-yl)-9-oxononyl)oxy)-2-(2,6-dioxopiperidin-3-yl)isoindoline-1,3-dione] was under 500 nM. The same measure for `O=C1CCC(N2C(=O)c3ccc(OCCCCCCCC(=O)N4CCC5(CC4)CCN(c4cncc(Nc6ncc(Cl)c(-c7cccc(-c8ccccc8)c7)n6)c4)C5=O)cc3C2=O)C(=O)N1` (centres unmarked) [Compound 73, 5-((8-(2-(5-((4-([1,1′-biphenyl]-3-yl)-5-chloropyrimidin-2-yl)amino)pyridin-3-yl)-1-oxo-2,8-diazaspiro[4.5]decan-8-yl)-8-oxooctyl)oxy)-2-(2,6-dioxopiperidin-3-yl)isoindoline-1,3-dione]: under 500 nM; for `O=C1CCC(N2C(=O)c3ccc(OCCCCCCC(=O)N4CCC5(CC4)CCN(c4cncc(Nc6ncc(Cl)c(-c7cccc(-c8ccccc8)c7)n6)c4)C5=O)cc3C2=O)C(=O)N1` (centres unmarked) [Compound 74, 5-((7-(2-(5-((4-([1,1′-biphenyl]-3-yl)-5-chloropyrimidin-2-yl)amino)pyridin-3-yl)-1-oxo-2,8-diazaspiro[4.5]decan-8-yl)-7-oxoheptyl)oxy)-2-(2,6-dioxopiperidin-3-yl)isoindoline-1,3-dione]: under 500 nM; for `O=C1CCC(N2C(=O)c3ccc(OCCCCCC(=O)N4CCC5(CC4)CCN(c4cncc(Nc6ncc(Cl)c(-c7cccc(-c8ccccc8)c7)n6)c4)C5=O)cc3C2=O)C(=O)N1` (centres unmarked) [Compound 75, 5-((6-(2-(5-((4-([1,1′-biphenyl]-3-yl)-5-chloropyrimidin-2-yl)amino)pyridin-3-yl)-1-oxo-2,8-diazaspiro[4.5]decan-8-yl)-6-oxohexyl)oxy)-2-(2,6-dioxopiperidin-3-yl)isoindoline-1,3-dione]: under 500 nM. With `O=C1CCC(N2C(=O)c3ccc(OCCCCC(=O)N4CCC5(CC4)CCN(c4cncc(Nc6ncc(Cl)c(-c7cccc(-c8ccccc8)c7)n6)c4)C5=O)cc3C2=O)C(=O)N1` (centres unmarked) [Compound 76, 5-((5-(2-(5-((4-([1,1′-biphenyl]-3-yl)-5-chloropyrimidin-2-yl)amino)pyridin-3-yl)-1-oxo-2,8-diazaspiro[4.5]decan-8-yl)-5-oxopentyl)oxy)-2-(2,6-dioxopiperidin-3-yl)isoindoline-1,3-dione], the DC50 is under 500 nM.
